The text below walks through data of ChEMBL document CHEMBL5465560, “Selectivity Literature for EUbOPEN Chemogenomic Library” (2024).

Experiment [1] concerns the target T1, Serine/threonine-protein kinase Nek11 (Homo sapiens) (UniProt Q8NG66).
T1 sequence (whole entry): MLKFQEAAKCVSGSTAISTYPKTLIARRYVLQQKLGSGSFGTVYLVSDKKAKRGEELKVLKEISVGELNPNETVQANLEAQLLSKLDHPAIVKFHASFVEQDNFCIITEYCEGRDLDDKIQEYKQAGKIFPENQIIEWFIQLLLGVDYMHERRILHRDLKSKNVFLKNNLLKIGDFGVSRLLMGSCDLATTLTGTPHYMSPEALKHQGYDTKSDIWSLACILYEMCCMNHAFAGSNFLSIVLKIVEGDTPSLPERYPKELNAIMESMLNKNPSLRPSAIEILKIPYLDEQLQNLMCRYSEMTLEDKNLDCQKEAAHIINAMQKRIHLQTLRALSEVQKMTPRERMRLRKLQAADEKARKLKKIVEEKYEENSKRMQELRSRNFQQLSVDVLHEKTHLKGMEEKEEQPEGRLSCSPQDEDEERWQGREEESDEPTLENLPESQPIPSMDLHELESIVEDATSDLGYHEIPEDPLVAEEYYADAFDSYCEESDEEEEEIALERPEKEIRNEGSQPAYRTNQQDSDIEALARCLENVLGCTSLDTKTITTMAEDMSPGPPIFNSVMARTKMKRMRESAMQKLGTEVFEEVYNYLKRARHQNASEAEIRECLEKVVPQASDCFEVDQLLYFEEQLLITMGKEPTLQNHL
The experiment in a line: Selectivity interaction (Upstate Kinase Profiler service (Millipore)) EUB0000056c NEK11. The following applies: at 1 µM.

Experiment [2] concerns the target Calcium/calmodulin-dependent protein kinase type 1D (Homo sapiens) (UniProt Q8IU85). Kind of experiment: Selectivity interaction (ProQinase) EUB0000171b CAMK1D.
The target of experiment [3] is T2, Aurora kinase C (Homo sapiens) (UniProt Q9UQB9).
T2 sequence (whole entry): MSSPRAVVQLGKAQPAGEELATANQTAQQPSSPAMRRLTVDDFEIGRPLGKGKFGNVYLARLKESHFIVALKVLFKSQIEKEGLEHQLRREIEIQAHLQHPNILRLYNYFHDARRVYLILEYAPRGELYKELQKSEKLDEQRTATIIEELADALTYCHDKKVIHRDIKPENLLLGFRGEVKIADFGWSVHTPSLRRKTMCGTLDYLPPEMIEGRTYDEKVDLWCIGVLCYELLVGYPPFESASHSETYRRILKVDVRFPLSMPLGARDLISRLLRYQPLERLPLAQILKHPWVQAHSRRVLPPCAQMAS
The following applies: at 10 µM.

In experiment [4] the target is Serine/threonine-protein kinase 32A (Homo sapiens) (UniProt Q8WU08). The experiment in a line: Selectivity interaction (KinomeScan (DiscoverX)) EUB0001079a STK32A. The following applies: at 1 µM.
Experiment [5] has as its target 5'-AMP-activated protein kinase catalytic subunit alpha-1 (Homo sapiens, UniProt Q13131). The experiment in a line: Selectivity interaction (KinomeScan (DiscoverX)) EUB0000655a PRKAA1. As to conditions: at 10 µM.
The target of experiment [6] is T3, Serine/threonine-protein kinase ULK3 (Homo sapiens) (UniProt Q6PHR2).
T3 sequence (whole entry): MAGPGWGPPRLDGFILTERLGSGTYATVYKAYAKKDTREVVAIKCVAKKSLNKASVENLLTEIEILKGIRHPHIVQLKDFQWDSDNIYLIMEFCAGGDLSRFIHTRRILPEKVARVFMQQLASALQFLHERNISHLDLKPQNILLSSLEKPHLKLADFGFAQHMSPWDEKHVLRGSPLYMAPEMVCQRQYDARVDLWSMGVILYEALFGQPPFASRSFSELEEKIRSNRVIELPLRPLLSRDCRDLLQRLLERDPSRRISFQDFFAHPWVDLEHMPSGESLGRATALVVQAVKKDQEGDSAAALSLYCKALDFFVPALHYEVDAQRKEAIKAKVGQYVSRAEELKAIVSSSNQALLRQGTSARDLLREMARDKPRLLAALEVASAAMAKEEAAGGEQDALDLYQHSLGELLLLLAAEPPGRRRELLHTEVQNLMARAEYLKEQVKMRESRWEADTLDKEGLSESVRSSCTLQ
The experiment in a line: Selectivity interaction (KinomeScan (DiscoverX)) EUB0000655a ULK3. The following applies: at 10 µM.

For experiment [7], the target named is Mitogen-activated protein kinase 7 (Homo sapiens) (UniProt Q13164). Kind of experiment: Selectivity interaction (Rxn Biology Kinase assay) EUB0001632a MAPK7. As to conditions: at 10 µM.
In experiment [8] the target is Tyrosine-protein kinase JAK1 (Homo sapiens, UniProt P23458). Kind of experiment: Selectivity interaction (ActivX KiNativ screen (kinase selectivity in THP-1 cell lysates)) EUB0000639a JAK1. The format is subcellular. The following applies: lysate, at 1 µM.
Experiment [9] concerns the target Transcription initiation factor TFIID subunit 1 (Homo sapiens) (UniProt P21675). Kind of experiment: Selectivity interaction (Human bromodomain panel (DSF assay)) EUB0000233b TAF1. (In DSF a fluorescence change marks the thermal transition of the protein.)
Experiment [10] concerns the target T4, Mitogen-activated protein kinase 13 (Homo sapiens) (UniProt O15264).
T4 sequence (whole entry): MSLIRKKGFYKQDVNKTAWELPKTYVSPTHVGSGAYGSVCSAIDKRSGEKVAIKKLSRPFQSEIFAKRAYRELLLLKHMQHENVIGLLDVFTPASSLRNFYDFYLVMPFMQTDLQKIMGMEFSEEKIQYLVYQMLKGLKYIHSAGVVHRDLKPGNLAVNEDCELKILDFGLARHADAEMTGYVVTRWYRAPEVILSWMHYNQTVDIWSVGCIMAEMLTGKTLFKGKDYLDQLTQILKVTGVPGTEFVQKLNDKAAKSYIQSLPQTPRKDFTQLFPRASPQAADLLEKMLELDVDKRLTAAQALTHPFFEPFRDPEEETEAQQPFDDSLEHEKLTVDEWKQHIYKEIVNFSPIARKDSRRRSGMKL
Kind of experiment: Selectivity interaction (KinomeScan (DiscoverX)) EUB0000618a MAPK13. The following applies: at 10 µM.

Molecules are shown by their SMILES. A value given as a limit tells only on which side of the number the result lay.

Calcium/calmodulin-dependent protein kinase type 1D (Homo sapiens), sequence (Q8IU85 whole entry, looked up): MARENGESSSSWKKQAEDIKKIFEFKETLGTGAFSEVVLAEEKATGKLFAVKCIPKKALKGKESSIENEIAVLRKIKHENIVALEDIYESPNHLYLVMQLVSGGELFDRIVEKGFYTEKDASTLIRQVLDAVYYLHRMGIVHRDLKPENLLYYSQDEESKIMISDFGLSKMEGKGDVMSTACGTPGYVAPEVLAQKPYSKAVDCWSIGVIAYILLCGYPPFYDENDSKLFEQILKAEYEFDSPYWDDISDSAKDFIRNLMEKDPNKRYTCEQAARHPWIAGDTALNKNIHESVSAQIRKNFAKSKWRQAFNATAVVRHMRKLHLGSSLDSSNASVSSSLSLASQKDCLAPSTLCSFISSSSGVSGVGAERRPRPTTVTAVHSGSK
Mitogen-activated protein kinase 7 (Homo sapiens), sequence (Q13164 2-816 limits assumed): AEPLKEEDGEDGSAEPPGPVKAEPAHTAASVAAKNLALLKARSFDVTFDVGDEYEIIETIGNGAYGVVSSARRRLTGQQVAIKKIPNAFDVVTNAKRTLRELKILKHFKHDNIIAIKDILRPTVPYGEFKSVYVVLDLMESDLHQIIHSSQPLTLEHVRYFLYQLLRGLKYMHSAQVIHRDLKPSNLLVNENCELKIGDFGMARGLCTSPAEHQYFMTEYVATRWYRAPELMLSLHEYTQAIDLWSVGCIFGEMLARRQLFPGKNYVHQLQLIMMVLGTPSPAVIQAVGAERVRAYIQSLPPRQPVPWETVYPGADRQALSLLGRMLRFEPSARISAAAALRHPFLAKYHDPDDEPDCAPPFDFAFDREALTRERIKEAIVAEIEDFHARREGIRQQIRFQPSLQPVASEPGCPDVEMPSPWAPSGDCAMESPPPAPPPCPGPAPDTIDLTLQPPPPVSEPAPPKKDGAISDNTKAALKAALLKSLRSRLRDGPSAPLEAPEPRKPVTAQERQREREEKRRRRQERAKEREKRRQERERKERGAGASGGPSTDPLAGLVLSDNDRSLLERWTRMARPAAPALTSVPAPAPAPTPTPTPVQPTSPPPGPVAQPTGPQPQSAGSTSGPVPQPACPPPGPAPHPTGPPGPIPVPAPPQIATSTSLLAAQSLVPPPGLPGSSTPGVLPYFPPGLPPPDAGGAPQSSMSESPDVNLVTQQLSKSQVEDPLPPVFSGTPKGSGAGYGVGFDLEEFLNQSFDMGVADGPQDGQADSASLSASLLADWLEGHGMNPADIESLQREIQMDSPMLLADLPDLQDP
Tyrosine-protein kinase JAK1, sequence (P23458 whole entry): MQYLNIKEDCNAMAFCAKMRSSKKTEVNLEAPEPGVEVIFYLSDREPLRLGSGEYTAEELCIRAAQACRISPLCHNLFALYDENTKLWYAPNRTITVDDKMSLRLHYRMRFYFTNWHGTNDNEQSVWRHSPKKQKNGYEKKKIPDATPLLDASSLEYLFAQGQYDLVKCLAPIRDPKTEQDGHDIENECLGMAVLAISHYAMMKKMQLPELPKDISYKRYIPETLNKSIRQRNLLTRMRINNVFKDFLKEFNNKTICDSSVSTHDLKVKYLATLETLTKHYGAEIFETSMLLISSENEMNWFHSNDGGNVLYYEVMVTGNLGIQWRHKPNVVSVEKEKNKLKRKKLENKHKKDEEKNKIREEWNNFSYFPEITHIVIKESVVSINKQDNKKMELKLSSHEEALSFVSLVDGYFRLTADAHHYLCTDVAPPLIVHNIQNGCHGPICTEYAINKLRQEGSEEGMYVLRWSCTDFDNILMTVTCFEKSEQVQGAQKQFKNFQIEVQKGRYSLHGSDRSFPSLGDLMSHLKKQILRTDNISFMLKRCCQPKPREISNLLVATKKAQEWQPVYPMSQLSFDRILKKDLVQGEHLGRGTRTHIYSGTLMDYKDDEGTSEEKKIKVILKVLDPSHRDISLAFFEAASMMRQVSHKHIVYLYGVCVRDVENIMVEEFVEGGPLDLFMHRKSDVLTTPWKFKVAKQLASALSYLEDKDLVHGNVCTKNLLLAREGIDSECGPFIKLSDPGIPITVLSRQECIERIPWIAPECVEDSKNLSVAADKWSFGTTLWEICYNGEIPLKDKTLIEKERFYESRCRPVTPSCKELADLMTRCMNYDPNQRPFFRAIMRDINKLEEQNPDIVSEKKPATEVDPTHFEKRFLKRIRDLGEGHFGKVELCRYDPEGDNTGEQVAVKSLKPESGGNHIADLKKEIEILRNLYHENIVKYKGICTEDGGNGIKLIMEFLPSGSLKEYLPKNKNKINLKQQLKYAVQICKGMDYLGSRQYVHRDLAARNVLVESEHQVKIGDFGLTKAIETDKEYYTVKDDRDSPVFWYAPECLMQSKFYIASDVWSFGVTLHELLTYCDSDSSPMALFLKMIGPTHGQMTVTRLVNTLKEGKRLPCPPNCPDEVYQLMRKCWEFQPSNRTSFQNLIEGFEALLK
Serine/threonine-protein kinase 32A (Homo sapiens), sequence (Q8WU08 whole entry): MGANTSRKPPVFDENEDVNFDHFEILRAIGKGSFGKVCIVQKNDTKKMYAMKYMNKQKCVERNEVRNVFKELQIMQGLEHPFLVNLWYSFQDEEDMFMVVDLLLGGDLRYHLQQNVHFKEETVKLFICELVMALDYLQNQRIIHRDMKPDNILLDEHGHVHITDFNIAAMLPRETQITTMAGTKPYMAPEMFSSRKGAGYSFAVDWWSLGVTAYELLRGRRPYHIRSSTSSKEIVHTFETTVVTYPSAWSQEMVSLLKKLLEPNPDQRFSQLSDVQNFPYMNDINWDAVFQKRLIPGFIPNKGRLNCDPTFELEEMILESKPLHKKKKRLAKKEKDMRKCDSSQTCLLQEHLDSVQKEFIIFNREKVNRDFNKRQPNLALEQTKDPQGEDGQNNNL
Transcription initiation factor TFIID subunit 1 (Homo sapiens), sequence (P21675 whole entry): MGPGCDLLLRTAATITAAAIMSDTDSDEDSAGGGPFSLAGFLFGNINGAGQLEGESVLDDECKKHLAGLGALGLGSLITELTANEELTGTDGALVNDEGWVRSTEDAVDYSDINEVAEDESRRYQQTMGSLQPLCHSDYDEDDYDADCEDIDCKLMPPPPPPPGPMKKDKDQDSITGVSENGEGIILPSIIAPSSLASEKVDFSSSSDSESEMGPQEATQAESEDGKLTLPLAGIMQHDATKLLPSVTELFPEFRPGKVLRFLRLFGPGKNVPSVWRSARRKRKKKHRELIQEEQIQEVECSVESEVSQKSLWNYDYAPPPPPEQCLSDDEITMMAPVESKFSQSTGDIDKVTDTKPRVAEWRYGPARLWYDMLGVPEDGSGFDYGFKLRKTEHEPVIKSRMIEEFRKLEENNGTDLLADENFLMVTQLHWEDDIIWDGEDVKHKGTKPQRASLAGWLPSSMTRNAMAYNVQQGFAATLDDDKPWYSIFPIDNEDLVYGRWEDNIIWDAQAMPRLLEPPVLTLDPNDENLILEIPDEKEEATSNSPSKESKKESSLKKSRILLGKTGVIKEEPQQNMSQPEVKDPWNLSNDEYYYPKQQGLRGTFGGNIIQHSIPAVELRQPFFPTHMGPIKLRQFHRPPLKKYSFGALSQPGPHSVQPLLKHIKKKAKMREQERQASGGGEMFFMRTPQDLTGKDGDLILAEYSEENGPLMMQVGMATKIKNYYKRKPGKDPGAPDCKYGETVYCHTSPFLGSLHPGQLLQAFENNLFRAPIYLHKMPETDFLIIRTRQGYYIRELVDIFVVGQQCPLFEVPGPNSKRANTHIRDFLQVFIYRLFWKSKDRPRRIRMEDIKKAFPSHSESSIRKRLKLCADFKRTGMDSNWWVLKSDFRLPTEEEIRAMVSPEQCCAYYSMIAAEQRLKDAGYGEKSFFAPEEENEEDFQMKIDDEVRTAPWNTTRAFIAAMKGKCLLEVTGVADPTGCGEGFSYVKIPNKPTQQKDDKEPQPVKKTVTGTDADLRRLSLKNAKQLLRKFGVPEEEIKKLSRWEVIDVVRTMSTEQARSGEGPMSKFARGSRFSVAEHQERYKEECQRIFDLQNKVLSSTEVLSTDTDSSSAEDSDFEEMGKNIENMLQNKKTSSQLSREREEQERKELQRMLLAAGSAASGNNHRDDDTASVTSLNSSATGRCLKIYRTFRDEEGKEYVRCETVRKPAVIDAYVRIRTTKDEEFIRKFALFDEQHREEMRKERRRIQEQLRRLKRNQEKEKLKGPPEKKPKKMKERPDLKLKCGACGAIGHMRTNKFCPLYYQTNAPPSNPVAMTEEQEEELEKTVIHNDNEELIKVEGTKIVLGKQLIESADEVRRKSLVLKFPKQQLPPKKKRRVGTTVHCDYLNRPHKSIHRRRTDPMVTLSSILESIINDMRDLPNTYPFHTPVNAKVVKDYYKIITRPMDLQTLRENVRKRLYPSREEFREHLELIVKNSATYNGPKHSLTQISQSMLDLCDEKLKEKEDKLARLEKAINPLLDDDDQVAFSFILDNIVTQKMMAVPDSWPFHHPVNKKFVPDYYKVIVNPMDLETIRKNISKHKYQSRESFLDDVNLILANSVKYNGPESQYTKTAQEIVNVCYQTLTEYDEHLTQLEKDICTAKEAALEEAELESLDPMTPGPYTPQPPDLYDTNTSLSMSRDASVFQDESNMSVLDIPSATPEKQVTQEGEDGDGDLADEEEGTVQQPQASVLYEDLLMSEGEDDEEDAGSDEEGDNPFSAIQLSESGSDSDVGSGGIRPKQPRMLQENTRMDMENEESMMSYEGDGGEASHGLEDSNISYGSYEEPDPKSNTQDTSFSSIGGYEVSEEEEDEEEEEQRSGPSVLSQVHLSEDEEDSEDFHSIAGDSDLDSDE

Turning to `Cc1ccc(-c2ccc3c(ccc4sc5c(c43)NC[C@@H](C)NC5=O)n2)cn1`, the % of inhibition in experiment [1] was -11%. With `C=CC(=O)Nc1cccc(C(=O)Nc2ccc(Nc3cc(-c4[nH]c(SC)nc4C)ccn3)cc2)c1`, the % of control in experiment [2] (at 1 µM) was found to be 90%; in [2] (at 5 µM), 75%.

Turning to `CCN(CC)CCCCNc1ncc2cc(-c3cc(OC)cc(OC)c3)c(NC(=O)NC(C)(C)C)nc2n1`, the % of control in experiment [3] is 100%. The compound `Nc1cnc(N2CCc3cc(S(=O)(=O)Nc4c(F)cc(Cl)cc4F)cc(N4CCCC4=O)c32)nc1` [TP-020n] returned a % of control in experiment [4] of 80%. As for `CN(C)CCOc1ccc(-c2nc(-c3ccncc3)c(-c3ccc4c(c3)CC/C4=N\O)[nH]2)cc1`, the % of control in experiment [5] came out at 100%; in [6] it was 88%. Take `Cn1cc(-n2cnc3c(NCc4nc5cc(Cl)c(Cl)cc5[nH]4)nc(N4CCOCC4)nc32)cn1`: the % of inhibition in experiment [7] was -29.8%.

As for `CC[C@@H]1[C@H](F)C(=O)N[C@@H]1COc1nccc2cc(C(N)=O)c(OC)cc12` [ZIMLOVISERTIB], the % of inhibition in experiment [8] was -1.3%.

In the case of `CN(C)CCCOc1ccc(-c2cc(NCCCn3cccn3)nc(S(C)(=O)=O)n2)cc1`, the dTM in experiment [9] was < 2 K. In [10], `O[C@H]1CC[C@H](Nc2ncc3nc(Nc4c(F)cc(F)cc4F)n([C@H]4CCOC4)c3n2)CC1` returned a % of control of 90%.
